Molecules are shown by their SMILES. Where a name gives a salt, the structure may show the parent alone.

We go through three compounds from patent US20250129054A1 (Terran Biosciences Inc., priority 2022, published 2025).

This data set is described as follows: Serial tail vein bleed PK study in SD rats: methylone measured in plasma after IV or oral methylone or oral methylone prodrugs. The class given is in vivo, Sprague Dawley rats. The note with it: 10 mg/kg, rat. Here is the method: A pharmacokinetic (PK) study was performed in three male Sprague-Dawley (SD) rats following intravenous (IV) and oral (PO) administration of methylone at 1 mg/kg (IV) and 10 mg/kg (PO) respectively, or test compounds (prodrugs of methylone) at 10 mg/kg (PO). Parent compound (methylone) was measured in plasma.
Samples were sent for method optimization and measurement of parent compound (methylone) via unique calibration lines and following acceptance QC's. Dose formulation concentrations were also measured, and PK parameters were determined (Cmax (ng/mL), Tmax (hr), Cl (ml/min/kg), Vdss (L/kg), t½(hr), AUC0-t (ng/mL*hr), AUC0-inf (ng/mL*hr), MIRT (hr), Bioavailability ([…]) where warranted) using WinNon Lin software. Data (including bioanalytical results and assay performance) were reported in a tabulated format.
Formulation for PO Administration: For PO dosing, the prodrug was formulated in 10% DMSO/20% PEG400/70% water to a concentration of 2 mg free metabolite material/mL. This provided a dose of 10 mg free metabolite/kg when the prodrug was administered PO in 5 mL/kg dosing volumes.
Formulation for IV administration: For IV dosing, rac-methylone was formulated as solution in saline to a concentration of 0.5 mg free metabolite material/mL. This provided a dose of 1 mg free metabolite/kg when administered IV in 2 mL/kg dosing volumes.
The pharmacokinetic properties of the synthesized methylone prodrugs after oral administration in a rat model were assessed. The concentration of methylone was measured in each rat at various sampling timepoints after IV or oral administration of rac-methylone or the synthesized methylone prodrugs to rats.
Dose formulations were made at equivalent concentrations of active compound (methylone) adjusted for molecular weight of the compounds. The synthesized methylone prodrugs or analogs were dosed at 10 mg/kg oral (PO) nominal dose. Nominal doses were used in PK parameter determinations. The parent compound (methylone) was dosed at 1 mg/kg intravenous (IV) and 10 mg/kg (PO).

[1] abbreviates: 0.500 h after oral dosing of the prodrug, individual animals.
Where [2] appears, read: 0.500 h after oral dosing of the prodrug, mean.
Setting [3] is: 1.00 h after oral dosing of the prodrug, individual animals.
[4] abbreviates: 1.00 h after oral dosing of the prodrug, mean.
Setting [5] is: 2.00 h after oral dosing of the prodrug, individual animals.
[6] abbreviates: 2.00 h after oral dosing of the prodrug, mean.
The mark [7] stands for this setting: 4.00 h after oral dosing of the prodrug, individual animals.
The mark [8] stands for this setting: 4.00 h after oral dosing of the prodrug, mean.
Setting [9] is: 7.00 h after oral dosing of the prodrug, individual animals.
Setting [10] is: 7.00 h after oral dosing of the prodrug, mean.
Where [11] appears, read: 24.0 h after oral dosing of the prodrug, individual animals.
The mark [12] stands for this setting: 24.0 h after oral dosing of the prodrug, mean.

In the case of `CC(C(=O)c1ccc2c(c1)OCO2)N(C)C(=O)[C@H](CCCCNC(=O)OC(C)(C)C)NC(=O)OC(C)(C)C` (stereo partly drawn) [Compound 3E, tert-Butyl N-[(5S)-6-[[2-(1,3-benzodioxol-5-yl)-1-methyl-2-oxo-ethyl]-methyl-amino]-5-(tert-butoxycarbonylamino)-6-oxo-hexyl]carbamate], the “Plasma Concentrations of metabolite methylone” value (“Plasma Concentrations” below) is “BLQ (Below Lower Limit of Quantification (0.5 ng/mL))” under setting [1]; “BLQ (Below Lower Limit of Quantification (0.5 ng/mL))” under setting [2]; “BLQ (Below Lower Limit of Quantification (0.5 ng/mL))” under setting [3]; “BLQ (Below Lower Limit of Quantification (0.5 ng/mL))” under setting [4]; “BLQ (Below Lower Limit of Quantification (0.5 ng/mL))” under setting [5]; “BLQ (Below Lower Limit of Quantification (0.5 ng/mL))” under setting [6]. Moreover, the “Plasma Concentrations” value was “BLQ (Below Lower Limit of Quantification (0.5 ng/mL))” under setting [7]; “BLQ (Below Lower Limit of Quantification (0.5 ng/mL))” under setting [8]; “BLQ (Below Lower Limit of Quantification (0.5 ng/mL))” under setting [9]; “BLQ (Below Lower Limit of Quantification (0.5 ng/mL))” under setting [10]; “BLQ (Below Lower Limit of Quantification (0.5 ng/mL))” under setting [11]; “BLQ (Below Lower Limit of Quantification (0.5 ng/mL))” under setting [12].
For the compound `CC(C)OC(=O)N(C)C(C)C(=O)c1ccc2c(c1)OCO2` (stereo not drawn) [Compound 1B, iso-Propyl N-[2-(1,3-benzodioxol-5-yl)-1-methyl-2-oxo-ethyl]-N-methyl-carbamate], the “Plasma Concentrations” value is, setting by setting: under setting [1], “BLQ (Below Lower Limit of Quantification (0.5 ng/mL))”; under setting [2], “BLQ (Below Lower Limit of Quantification (0.5 ng/mL))”; under setting [3], “BLQ (Below Lower Limit of Quantification (0.5 ng/mL))”; under setting [4], “BLQ (Below Lower Limit of Quantification (0.5 ng/mL))”; under setting [5], “BLQ (Below Lower Limit of Quantification (0.5 ng/mL))”; under setting [6], “BLQ (Below Lower Limit of Quantification (0.5 ng/mL))”. Besides, the “Plasma Concentrations” value under setting [7] is given as “BLQ (Below Lower Limit of Quantification (0.5 ng/mL))”; the “Plasma Concentrations” value under setting [8] was “BLQ (Below Lower Limit of Quantification (0.5 ng/mL))”; the “Plasma Concentrations” value under setting [9] is “BLQ (Below Lower Limit of Quantification (0.5 ng/mL))”; the “Plasma Concentrations” value under setting [10] is listed as “BLQ (Below Lower Limit of Quantification (0.5 ng/mL))”; the “Plasma Concentrations” value under setting [11] was “BLQ (Below Lower Limit of Quantification (0.5 ng/mL))”; the “Plasma Concentrations” value under setting [12] is “BLQ (Below Lower Limit of Quantification (0.5 ng/mL))”.
Consider `CC1C(c2ccc3c(c2)OCO3)=N[C@@H](CCCCN)C(=O)N1C` (stereo partly drawn) [Compound 4A, dihydrochloride], for which the “Plasma Concentrations” value is reported as “BLQ (Below Lower Limit of Quantification (0.5 ng/mL))” under setting [1]; “BLQ (Below Lower Limit of Quantification (0.5 ng/mL))” under setting [2]; “BLQ (Below Lower Limit of Quantification (0.5 ng/mL))” under setting [3]; “BLQ (Below Lower Limit of Quantification (0.5 ng/mL))” under setting [4]; “BLQ (Below Lower Limit of Quantification (0.5 ng/mL))” under setting [5]; “BLQ (Below Lower Limit of Quantification (0.5 ng/mL))” under setting [6]. Further, the “Plasma Concentrations” value under setting [7] is reported as “BLQ (Below Lower Limit of Quantification (0.5 ng/mL))”; the “Plasma Concentrations” value under setting [8] was “BLQ (Below Lower Limit of Quantification (0.5 ng/mL))”; the “Plasma Concentrations” value under setting [9] is “BLQ (Below Lower Limit of Quantification (0.5 ng/mL))”; the “Plasma Concentrations” value under setting [10] was “BLQ (Below Lower Limit of Quantification (0.5 ng/mL))”; the “Plasma Concentrations” value under setting [11] is “BLQ (Below Lower Limit of Quantification (0.5 ng/mL))”; the “Plasma Concentrations” value under setting [12] is “BLQ (Below Lower Limit of Quantification (0.5 ng/mL))”.
